The numbers were not newly measured in patent publication US20160120848A1, “SPECIFIC CANCER TREATMENT REGIMES WITH GANETESPIB” (SYNTA PHARMACEUTICALS CORP., priority 2013, published 2016), which cites them from elsewhere.

The test system of data set [1] is leukemia cells that express either wild type FLT3 or FLT3-ITD mutations. To be noted: cells expressing wild type FLT3 or FLT3-ITD mutations; cited from earlier work.
Data set [2] deals with Kasumi-1 cells. To be noted: Kasumi-1, acute myeloid leukemia cell line with c-Kit mutation; cited from earlier work.
Data set [3] deals with FLT3 with Hsp90. To be noted: cited from earlier work.

`C=CCNC1=C2C[C@@H](C)C[C@H](OC)[C@H](O)[C@@H](C)/C=C(\C)[C@H](OC(N)=O)[C@@H](OC)/C=C\C=C(/C)C(=O)NC(=CC1=O)C2=O` [17AAG]: the “growth of leukemia cells” value in data set [1] is “inhibited”. Also, the apoptosis entry in data set [2] was “induce apoptosis”. In data set [3], the “effect on association of FLT3 with Hsp90” value is on record as “disrupt the association of FLT3 with Hsp90”.
